Among the data in patent publication US20230271949A1, “GLP-1R MODULATING COMPOUNDS” (ASCLETIS BIOSCIENCE CO., LTD., priority 2022, published 2023) are EC50 values, retold here.

The target in this assay is GLP-1R (Homo sapiens, UniProt P43220). Description: GLP-1R agonist cAMP stimulation assay (HTRF cAMP). Particulars: HEK293 cell line expressing GLP-1 target; HTRF cAMP agonist mode, 30 min at RT. The assay is classed as cell-based. The method in brief: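 GLP-1R-expressing cells were stimulated with 10-point, 3-fold compound dilutions for 30 min at RT; HTRF cAMP detection reagents were then added for 60 min and the 665/615 ratio read. Ratios were converted to cAMP via a standard curve and % activity scaled between DMSO and top-concentration GLP-1(7-37) reference wells.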
GLP-1R, sequence (P43220 24-463): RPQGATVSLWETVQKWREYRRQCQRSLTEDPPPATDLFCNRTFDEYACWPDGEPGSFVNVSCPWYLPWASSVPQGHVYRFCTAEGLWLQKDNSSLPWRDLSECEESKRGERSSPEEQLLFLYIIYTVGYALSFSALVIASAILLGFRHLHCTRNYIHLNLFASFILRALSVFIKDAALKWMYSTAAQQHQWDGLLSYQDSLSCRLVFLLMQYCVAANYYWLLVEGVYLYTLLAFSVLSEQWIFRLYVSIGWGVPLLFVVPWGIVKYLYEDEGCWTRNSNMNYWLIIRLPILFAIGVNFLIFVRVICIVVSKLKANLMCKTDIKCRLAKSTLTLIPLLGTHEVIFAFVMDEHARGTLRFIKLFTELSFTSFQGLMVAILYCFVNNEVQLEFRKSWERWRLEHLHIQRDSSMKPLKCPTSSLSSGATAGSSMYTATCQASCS

In general, EC50 refers to the concentration giving half of the maximal effect. Read a high EC50 as a need for much substance. In the case of `CC1(c2ccc(Cl)cc2F)Oc2cccc(C3=CCN(Cc4nc5cc(NC(=O)c6cc(F)c7c(c6)C6(CC6)C(=O)N7)ccc5n4C[C@@H]4CCO4)CC3)c2O1` (stereo partly shown) [Compound 314], a half-maximal response (EC50) required 0.63 nM. As to `Cc1n[nH]c2c(C(F)F)cc(NC(=O)c3ccc4c(c3)nc(CN3CC=C(c5cccc(OCc6ccc(Cl)c7cc(Cl)oc67)n5)CC3)n4C[C@@H]3CCO3)cc12` [Compound 352], a half-maximal effect (EC50) was put at 1.03 nM. Next, `O=C(Nc1ccc2[nH]nnc2c1)c1ccc2c(c1)nc(CN1CCC(c3cccc(OCc4ccc(Cl)cc4F)n3)CC1)n2C[C@@H]1CCO1` [Compound 193]: 0.21 nM. Next, `Cc1nc2cccc(COc3cccc(C4CCN(Cc5nc6cc(C(=O)Nc7ccc8[nH]nc(C)c8c7)ccc6n5C[C@@H]5CCO5)CC4)n3)c2s1` [Compound 381]: 1.99 nM; `COCCn1c(CN2CCC(c3cccc(OCc4ccc(Cl)cc4F)n3)CC2)nc2cc(C(=O)NCc3ccccc3O)ccc21` [Compound 35]: greater than 10000 nM.

As for `Cc1cc(NC(=O)c2ccc3c(c2)nc(CN2CCC(c4cccc(OCc5ccc(C#N)cc5F)n4)CC2)n3C[C@@H]2CCO2)cc2c1NC(=O)C21CC1` [Compound 124], the EC50 is 0.17 nM.

With `O=C(Nc1cc(C(F)(F)F)c2[nH]nc(C3CC3)c2c1)c1ccc2c(c1)nc(CN1CC=C(c3cccc(OCc4ccc(Cl)cc4F)n3)CC1)n2C[C@@H]1CCO1` [Compound 163], the concentration for a half-maximal effect (EC50) amounted to 0.99 nM. Take `Cc1cc(C(=O)Nc2ccc3c(c2)nc(CN2CC=C(c4cccc(OCc5ccc(Cl)cc5F)n4)CC2)n3C[C@@H]2CCO2)cc2c(C3CC3)n[nH]c12` [Compound 218]: the EC50 amounted to 1.63 nM. Next, `Cc1cc(NC(=O)c2ccc3c(c2)nc(CN2CCC(c4cccc5c4OC(C)(c4ccc(Cl)cc4F)O5)CC2)n3CC2CCO2)cc2c(C(F)(F)F)n[nH]c12` (stereo not shown) [Compound 332]: 1.58 nM; `Cc1c(C#N)sc(COc2cccc(C3=CCN(Cc4nc5cc(NC(=O)c6ccc7[nH]nc(C)c7c6)ccc5n4C[C@@H]4CCO4)CC3)n2)c1F` [Compound 361]: 0.9 nM; `COCCn1c(Cc2ccc(-c3cccc(OCc4ccc(C#N)cc4F)n3)cc2-c2nccn2C)nc2cc(C(=O)NCCc3ccc(S(N)(=O)=O)cc3)ccc21` [Compound 29]: greater than 10000 nM. Next, `COC(=O)[C@@H]1CC(F)(F)CN1C(=O)CNC(=O)c1ccc2c(c1)nc(CN1CC=C(c3cccc(OCc4ccc(Cl)cc4F)n3)CC1)n2C[C@@H]1CCO1` [Compound 69]: 70.5 nM. Molecule `O=C(Nc1ccc2c(c1)nc(C(F)(F)N1CC=C(c3cccc(OCc4ccc(Cl)cc4F)n3)CC1)n2C[C@@H]1CCO1)c1ccc2[nH]nc(C3CC3)c2c1` [Compound 258] yielded a concentration giving a half-maximal response (EC50) of 31.8 nM. With `Cc1cc(NC(=O)c2ccc3c(c2)nc(CN2CC=C(c4cccc(OCc5ccc(C#N)cc5F)n4)CC2)n3C[C@@H]2CCO2)cc2cn[nH]c12` [Compound 188] the figure was 1.19 nM; with `N#Cc1ccc(COc2cccc(C3=CCN(Cc4nc5cc(NC(=O)c6cc(F)c7c(c6)C6(CC6)C(=O)N7)ccc5n4C[C@@H]4CCO4)CC3)n2)c(F)c1` [Compound 227], 0.22 nM. Next, `Cc1cc(C(=O)Nc2ccc3c(c2)nc(CN2CC=C(c4cccc5c4OC(C)(c4ccc(Cl)cc4F)O5)CC2)n3C[C@@H]2CCO2)cc2c1NC(=O)C21CC1` (stereo partly shown) [Compound 307]: 0.21 nM; `O=C(O)CNC(=O)c1ccc2c(c1)nc(CN1CCC(c3cccc(OCc4ccc(Cl)cc4F)n3)CC1)n2C[C@@H]1CCO1` [Compound 50]: 34 nM; `Cc1n[nH]c2ccc(NC(=O)c3ccc4c(c3)nc(CN3CC=C(c5cccc(OCc6ccc(C#N)cc6F)n5)CC3)n4C[C@@H]3CCO3)cc12` [Compound 187]: 0.2 nM. Next, `O=C(Nc1ccc2c(c1)nc(CN1CC=C(c3cccc(OCc4ccc(Cl)cc4F)n3)CC1)n2C[C@@H]1CCO1)c1ccc2[nH]ncc2c1` [Compound 204]: 0.63 nM; `C[C@H](NC(=O)c1ccc2c(c1)nc(CN1CC=C(c3cccc(OCc4ccc(Cl)cc4F)n3)CC1)n2C[C@@H]1CCO1)C(=O)N1CC(F)(F)C[C@H]1C(=O)O` [Compound 73]: 0.52 nM. Take `O=C(Nc1ccc2c(c1)C1(CC1)C(=O)N2)c1ccc2c(c1)nc(CN1CCC(c3cccc(OCc4ccc(Cl)cc4F)n3)CC1)n2C[C@@H]1CCO1` [Compound 86]: a half-maximal effect (EC50) was put at 0.75 nM. With `O=C(NCC(=O)N1CC[C@@H](O)C1)c1ccc2c(c1)nc(CN1CCC(c3cccc(OCc4ccc(Cl)cc4F)n3)CC1)n2C[C@@H]1CCO1` [Compound 77], the EC50 is 1.9 nM. Compared with the last molecule, the EC50 is about 2.5-fold higher. Molecule `O=C(Nc1ccn2ncc(Cl)c2c1)c1ccc2c(c1)nc(CN1CCC(c3cccc(OCc4ccc(Cl)cc4F)n3)CC1)n2CC1CCO1` (stereo not shown) [Compound 97] showed a concentration for a half-maximal effect (EC50) of 140 nM.

For the molecule `Cc1n[nH]c2c(Cl)cc(NC(=O)c3ccc4c(c3)nc(CN3CC=C(c5cccc(OCc6ccc(Cl)cc6F)n5)CC3)n4C[C@@H]3CCO3)cc12` [Compound 160], the concentration giving a half-maximal response (EC50) stood at 0.98 nM.

As for `N#Cc1ccc(COc2cccc(C3CCN(Cc4nc5cc(C(=O)NCC(=O)N6C[C@@H](O)C[C@H]6C(=O)O)ccc5n4C[C@@H]4CCO4)CC3)n2)c(F)c1` [Compound 56], a half-maximal effect (EC50) was put at 0.97 nM. Next, `CCc1cc(NC(=O)c2ccc3c(c2)nc(CN2CCC(c4cccc(OCc5ccc(Cl)cc5F)n4)CC2)n3C[C@@H]2CCO2)cc2c(C)n[nH]c12` [Compound 117]: 10.2 nM. Next, `Cc1n[nH]c2ccc(C(=O)Nc3ccc4c(c3)nc(CN3CC=C(c5cccc6c5OC(C)(c5ccc(Cl)cc5F)O6)CC3)n4CC3CCO3)cc12` (stereo not shown) [Compound 306]: 0.56 nM; `Cc1cc(NC(=O)c2ccc3c(c2)nc(CN2CCC(c4cccc5c4OC(C)(c4ccc(Cl)cc4F)O5)CC2)n3C[C@@H]2CCO2)cc2c1NC(=O)C21CC1` (stereo partly shown) [Compound 337]: 0.45 nM; `Cc1n[nH]c2c(F)cc(NC(=O)c3cc4c(nc(CN5CC=C(c6cccc(OCc7ccc(Cl)cn7)n6)CC5)n4C[C@@H]4CCO4)s3)cc12` [Compound 406]: 99.2 nM. Next, `O=C(Nc1ccc2nc(CN3CC=C(c4cccc(OCc5ccc(Cl)cc5F)n4)CC3)n(C[C@@H]3CCO3)c2c1)c1ccc2[nH]c(=O)[nH]c2c1` [Compound 285]: 0.42 nM.

`Cc1cc(NC(=O)c2ccc3c(c2)nc(CN2CC=C(c4cccc5c4OC(C)(c4ccc(Cl)cc4F)O5)CC2)n3C[C@@H]2CCO2)cc2[nH]c(=O)[nH]c12` (stereo partly shown) [Compound 303]: it took 0.91 nM to reach a half-maximal effect (EC50). With `Cc1n[nH]c2c(C)cc(NC(=O)c3ccc4c(c3)nc(CN3CC=C(c5cccc(OCc6ccc(C#N)cc6F)n5)CC3)n4C[C@@H]3CCO3)cc12` [Compound 181] the figure was 0.21 nM; with `Cc1n[nH]c2c(C)cc(C(=O)Nc3ccc4c(c3)nc(CN3CC=C(c5cccc(OCc6ccc(C#N)c7cc(Cl)oc67)n5)CC3)n4C[C@@H]3CCO3)cc12` [Compound 357], 0.41 nM; with `O=C(Nc1ccc2c(c1)nc(CN1CC=C(c3cccc(OCc4ccc(Cl)cc4F)n3)CC1)n2C[C@@H]1CCO1)c1ccc2[nH]ccc2c1` [Compound 393], 15.2 nM. With `COC(=O)[C@@H]1C[C@H](O)CN1C(=O)CNC(=O)c1ccc2c(c1)nc(CN1CCC(c3cccc(OCc4ccc(C#N)cc4F)n3)CC1)n2C[C@@H]1CCO1` [Compound 47] the figure was 9.6 nM; with `O=C(NCCc1ccc(O)cc1)c1ccc2c(c1)nc(CN1CCC(c3cccc(OCc4ccc(Cl)cc4F)n3)CC1)n2C[C@@H]1CCO1` [Compound 15], 25.6 nM. With `N#Cc1ccc(COc2cccc(C3CCN(Cc4nc5cc(C(=O)Nc6ccc7[nH]nc(C(F)(F)F)c7c6)ccc5n4C[C@@H]4CCO4)CC3)n2)c(F)c1` [Compound 130] the figure was 1.34 nM. Molecule `Cc1cc(C(=O)Nc2ccc3c(c2)nc(CN2CC=C(c4cccc(OCc5ccc(Cl)cc5F)n4)CC2)n3C[C@@H]2CCO2)cc2c1NC(=O)C21CC1` [Compound 209] returned an EC50 of 0.32 nM. With `O=C(NCC(=O)N1C[C@H](O)C[C@@H]1C(=O)O)c1ccc2c(c1)nc(CN1CCC(c3cccc(OCc4ccc(Cl)cc4F)n3)CC1)n2C[C@@H]1CCO1` [Compound 46] the figure was 42.4 nM.

The molecule `O=C(Nc1ccc2[nH]c(=O)[nH]c2c1)c1ccc2nc(CN3CC=C(c4cccc(OCc5ccc(Cl)cc5F)n4)CC3)n(C[C@@H]3CCO3)c2c1` [Compound 270] registered a 50% effective concentration (EC50) of 1.02 nM. `Cc1n[nH]c2c(C(F)(F)F)cc(NC(=O)c3ccc4c(c3)nc(CN3CC=C(c5cccc(OCc6ccc(Cl)cc6F)n5)CC3)n4C[C@@H]3CCO3)cc12` [Compound 156] displayed an EC50 of 0.68 nM. Next, `O=C(Nc1cc(C(F)(F)F)c2c(c1)C1(CC1)C(=O)N2)c1ccc2c(c1)nc(CN1CC=C(c3cccc(OCc4ccc(Cl)cc4F)n3)CC1)n2C[C@@H]1CCO1` [Compound 157]: 0.77 nM.

The molecule `O=C(NCC(=O)N1CCC[C@H]1C(=O)O)c1ccc2c(c1)nc(CN1CCC(c3cccc(OCc4ccc(Cl)cc4F)n3)CC1)n2C[C@@H]1CCO1` [Compound 60] gave a 50% effective concentration (EC50) of 22.3 nM. Consider `Cc1cc2c(C#N)ccc(COc3cccc(C4=CCN(Cc5nc6cc(NC(=O)c7cc(F)c8[nH]nc(C)c8c7)ccc6n5C[C@@H]5CCO5)CC4)n3)c2o1` [Compound 360], for which the EC50 is 0.19 nM. Next, `COCCn1c(CN2CCC(c3cccc(OCc4ccc(Cl)cc4F)n3)CC2)nc2cc(C(=O)N[C@@H]3CCc4nc(N)sc4C3)ccc21` [Compound 14]: 447 nM; `COCCn1c(CN2CCC(c3cccc(OCc4ccc(Cl)cc4F)n3)CC2)nc2cc(C(=O)Nc3ccc(O)cc3)ccc21` [Compound 75]: greater than 10000 nM. With `Cc1cc(C(=O)Nc2ccc3c(c2)nc(CN2CC=C(c4cccc(OCc5ccc(Cl)cc5F)n4)CC2)n3C[C@@H]2CCO2)c(F)c2c(C)n[nH]c12` [Compound 222] the figure was 3.56 nM. With `COCCn1c(CN2CCC(c3cccc(OCc4ccc(Cl)cc4F)n3)CC2)nc2cc(C(=O)NCCc3c[nH]c4ccc(O)cc34)ccc21` [Compound 17] the figure was 404 nM; with `Cc1n[nH]c2c(C)cc(NC(=O)c3ccc4c(c3)nc(CN3CC=C(c5cccc(OCc6ccc(Cl)cn6)n5)CC3)n4C[C@@H]3CCO3)cc12` [Compound 165], 0.88 nM.
